According to patent publication US20210308188A1, “CELL CLUSTER INCLUDING OLFACTORY NEURON OR PRECURSOR CELL THEREOF, AND METHOD FOR PRODUCING SAME” (SUMITOMO CHEMICAL COMPANY, LIMITED, priority 2018, published 2021):

Assays:
Format in all cases: cell-based
human iPS cells [1] = assay: Cell cluster production with EGF and second Wnt signaling pathway inhibitory substance (Experiment 6); settings: EGF 20 ng/ml added on day 13 and XAV939 300 nM on day 17 (both added); day 28
Description: In Experiment 6, as shown in the upper section of FIG. 17, a cell cluster including an olfactory receptor neuron or a precursor cell thereof was produced by performing step (3c) as step (3) from the beginning, adding EGF from the middle of step (3c), and then culturing in the presence of XAV939 as a second Wnt signaling pathway inhibitory substance. The same manipulations as in Experiment 3 were performed except for those specifically indicated.
Specifically, steps (a), (1) and (2) were started with maintenance-cultured human iPS cells, and then, on day 3 after the start of suspension culturing, the medium was half exchanged with a serum-free medium being free of Y27632 and BMP4 and containing IWP-2, SB-431542, FGF2, Heparin Sodium and K02288 (start of step (3c)). FGF2, Heparin Sodium, and K02288 were included to be final concentrations in the well of 20 ng/ml, 10 μg/ml, and 1 μM, respectively. Thereafter, on days 6 and 10 after the start of suspension culturing, the medium was half exchanged with a serum-free medium being free of Y27632 and BMP4 and containing IWP-2, SB-431542, FGF2, Heparin Sodium and K02288. In addition, on day 13 after the start of suspension culturing, in addition to the above factors, EGF (manufactured by PrimeGene Co., Ltd.) was added to be a final concentration of 20 ng/ml. […]

[2] = tested on: human iPS cell line HC-6 #10; assay: Combination use of Wnt signaling pathway-activating substance and inhibitory substance in cell cluster production (Experiment 14)
Description: Cell clusters were produced in accordance with the procedures shown in the upper section of FIG. 28 by using Wnt signaling pathway-activating substance and inhibitory substance in combination. Human iPS cells (HC-6 #10 cell line, obtained from the Institute of Physical and Chemical Research) were subjected to maintenance culturing and step (a) in the same manner as in Experiment 1. The suspension culturing was started on a 96-well culture plate in the same manner as in Experiment 1, except that the number of cells per well was 9×10^3 cells. At the start of suspension culturing (day 0 after the start of suspension culturing, start of step (1)), Y27632 (final concentration 20 μM), IWP-2 (final concentration 2 μM), and SB-431542 (final concentration 1 μM) were added to the serum-free medium. In addition, CHIR99021 (manufactured by Cayman Chemical, Inc.) was added as a Wnt signaling pathway-activating substance such that the final concentration was 300 nM. When the Wnt signaling pathway inhibitory substance IWP-2 and the Wnt signaling pathway-activating substance CHIR99021 are used in combination, β-catenin-dependent Wnt Canonical Pathway is activated and β-catenin-independent Wnt-non-Canonical Pathway is inhibited. On day 2 after the start of suspension culturing, a serum-free medium being free of Y27632 and containing SB-431542, BMP4, IWP-2 and CHIR99021 was added at 100 μl per well (start of step (2)). BMP4 was added to the medium at 3 nM to be a final concentration in the well of 1.5 nM. On day 3 after the start of suspension culturing, the medium was half exchanged with a serum-free medium being free of Y27632 and BMP4 and containing IWP-2, SB-431542, FGF2 and CHIR99021 (start of step (3a)). Thereafter, on days 6 and 10 after the start of suspension culturing, the medium was half exchanged with a serum-free medium being free of Y27632 and BMP4 and containing IWP-2, SB-431542, FGF2, CHIR99021, and K02288 (start of step (3c)). […]

human iPS cells [3] = assay: Study for first Wnt signaling pathway inhibitory substance in cell cluster production (Experiment 9); settings: added from start of suspension culturing (IWP-2, IWP-3, IWP-4 2 μM; Wnt C-59 20 nM; KY02111 1 μM); BMP4 on day 2; day 28
Description: In Experiment 9, a study of cell cluster production efficiency was performed for the type of the first Wnt signaling pathway inhibitory substance, using human iPS cells. The experiments were performed in accordance with the procedures shown in the upper section of FIG. 22, and the same manipulations as in Experiment 3 were performed except for those specifically indicated. The suspension culturing of the human iPS cells subjected to maintenance culturing and step (a) was started in a medium supplemented with a first Wnt signaling pathway inhibitory substance, Y27632 (final concentration 20 μM) and SB-431542 (final concentration 1 μM).
As the first Wnt signaling pathway inhibitory substance, IWP-2 (manufactured by Tocris Biosciences, final concentration 2 μM), IWP-3 (manufactured by Cayman Chemicals, final concentration 2 μM), IWP-4 (manufactured by Cayman Chemicals, final concentration 2 μM), Wnt C-59 (manufactured by Cayman Chemicals, final concentration 20 nM), or KY02111 (manufactured by Cayman Chemicals, final concentration 1 μM) was used. As a control in which the first Wnt signaling pathway inhibitory substance was not added, DMSO was added.
On day 2 after the start of suspension culturing, a serum-free medium being free of Y27632 and containing each first Wnt signaling pathway inhibitory substance, SB-431542 and BMP4 (final concentration 1.5 nM) was added at 100 μl per well. In addition, on day 3 after the start of suspension culturing, the medium was half exchanged with a serum-free medium being free of Y27632 and BMP4 and containing SB-431542, K02288, FGF2, Heparin Sodium, and EGF. K02288, FGF2, Heparin Sodium, EGF were included to final concentrations in the well were 10 μM, 20 ng/ml, 10 μg/ml and 20 ng/ml, respectively. On days 6, 10, 13, 17, 21, and 24 after the start of suspension culturing, the medium was half exchanged with a serum-free medium being free of Y27632 and BMP4 and containing each first Wnt signaling pathway inhibitory substance, SB-431542, K02288, FGF2, Heparin Sodium, and EGF.
On day 28 after the start of suspension culturing, bright-field observation was performed with an inverted microscope (FIGS. 22A to 22F).
The cell clusters on day 28 after the start of suspension culturing were subjected to immunofluorescence staining in accordance with the same method as in Comparative Experiment 1. As primary antibodies, an anti-Six1 antibody and an anti-pan-cytokeratin antibody staining placode and non-neural epithelial tissues, and an anti-Sox2 antibody staining placode and neural cells, described in Table 1, were used. As fluorescently labeled secondary antibodies, an Alexa488-labeled donkey anti-rabbit antibody, a CF555-labeled donkey anti-goat antibody, and an Alexa647-labeled donkey anti-mouse antibody, described in Table 2, were used to perform multiple staining. Hoechst 33342 was used for contrast staining of the nucleus. The positive and negative determinations of the staining results were performed in the same manner as in Preliminary Experiment 1.
Under the conditions in which the first Wnt signaling pathway inhibitory substance was not added, no non-neural epithelial tissue was formed on the surface of the cell aggregate even when BMP4 was added on day 2 after the start of suspension culturing.

[4] = CHIR99021 300 nM added together with IWP-2 2 μM, day 21

| Compound | formation of aggregates having non-neural epithelial tissues on the surface (human iPS cells [3]) | also measured |
| --- | --- | --- |
| O=c1[nH]c(-c2ccc(C(F)(F)F)cc2)nc2c1CSCC2 [3,5,7,8-Tetrahydro-2-[4-(trifluoromethyl)phenyl]-4H-thiopyrano[4,3-d]pyrimidin-4-one] |  | stability of non-neural epithelial tissue part including olfactory receptor neuron or precursor cell versus conditions without addition (human iPS cells [1]): more stable |
| Cc1c[nH]c(-c2cnc(NCCNc3ccc(C#N)cn3)nc2-c2ccc(Cl)cc2Cl)n1 [CHIR99021] |  | formation of olfactory epithelial-like tissue on the external of the cell cluster [2, 4]: formed an olfactory epithelial-like tissue on the external of the cell cluster; number of dead cells in neural tissues inside of the cell clusters [2, 4]: reduced; extent of CHIR99021 at which Wnt-Canonical Pathway activity promotes survival of nervous tissues inside of the cell cluster and epithelial formation ([2]; combination with IWP-2): ≤ 3 µM |
| Cc1ccc2nc(NC(=O)CSc3nc4c(c(=O)n3-c3ccccc3)SCC4)sc2c1 [IWP-2, N-(6-Methyl-2-benzothiazolyl)-2-[(3,4,6,7-tetrahydro-4-oxo-3-phenylthieno[3,2-d]pyrimidin-2-yl)thio]-acetamide] | aggregates having non-neural epithelial tissues on the surface were formed |  |
| Cc1ccc2nc(NC(=O)CSc3nc4c(c(=O)n3-c3ccc(F)cc3)SCC4)sc2c1 [IWP-3, 2-[[3-(4-fluorophenyl)-3,4,6,7-tetrahydro-4-oxothieno[3,2-d]pyrimidin-2-yl]thio]-N-(6-methyl-2-benzothiazolyl)-acetamide] | aggregates having non-neural epithelial tissues on the surface were formed |  |
| COc1ccccc1-n1c(SCC(=O)Nc2nc3ccc(C)cc3s2)nc2c(c1=O)SCC2 [IWP-4, N-(6-methyl-2-benzothiazolyl)-2-[[3,4,6,7-tetrahydro-3-(2-methoxyphenyl)-4-oxothieno[3,2-d]pyrimidin-2-yl]thio]-acetamide] | aggregates having non-neural epithelial tissues on the surface were formed |  |
| COc1ccc(CCC(=O)Nc2nc3ccc(Cl)cc3s2)cc1OC [KY02111, N-(6-Chloro-2-benzothiazolyl)-3,4-dimethoxybenzenepropanamide] | aggregates having non-neural epithelial tissues on the surface were formed |  |
| Cc1cc(-c2ccc(CC(=O)Nc3ccc(-c4cccnc4)cc3)cc2)ccn1 [Wnt C-59, 2-[4-(2-Methylpyridin-4-yl)phenyl]-N-[4-(pyridin-3-yl)phenyl]acetamide] | aggregates having non-neural epithelial tissues on the surface were formed |  |
| EGF: EGF signaling pathway-activating substance, manufactured by PrimeGene (NSDSECPLSHDGYCLHDGVCMYIEALDKYACNCVVGYIGERCQYRDLKWWELR; Epidermal growth factor; UniProt P01133 971-1023, looked up) |  | stability of non-neural epithelial tissue part including olfactory receptor neuron or precursor cell versus conditions without addition (human iPS cells [1]): more stable |
